In PubChem BioAssay (NCI) one finds TGI data, which are given here for 9 molecules.

Structures are written as SMILES.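 Assay format: 96-well plates, 48-hour exposure. Definition used: TGI = concentration required for complete inhibition of growth.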

Among the test systems are UACC-62 melanoma; HS 578T breast; UO-31 renal; SF-268 CNS; HCT-116 colon; M14 melanoma; COLO 205 colon; SR leukemia; OVCAR-5 ovarian; DU-145 prostate; SF-539 CNS; 786-0 renal; MOLT-4 leukemia; UACC-257 melanoma; NCI-H460 lung; MDA-N.
What all share (assay): NCI-60 cell line screen, 48 h

On to `N=C1/C(=C/c2ccccc2)C(=O)N=C2SC=NN12`, for which the TGI in the experiment on UACC-62 melanoma, in the experiment on HS 578T breast, with UO-31 renal, with SF-268 CNS, in the experiment with HCT-116 colon and with M14 melanoma was above 100 µM each time. For the same molecule, the TGI with COLO 205 colon was above 100 µM; in the experiment with SR leukemia, above 100 µM; with OVCAR-5 ovarian it was above 100 µM; in the experiment with DU-145 prostate it was above 100 µM; in the experiment on SF-539 CNS, 88.5 µM; in the experiment on 786-0 renal, above 100 µM. The TGI with MOLT-4 leukemia, in the experiment with UACC-257 melanoma, in the experiment on NCI-H460 lung and with MDA-N was above 100 µM in each case.

Turning to `CCOC(=O)CCC(NC(=O)c1ccc(OCc2ccc3nc(OC)c(OC)nc3c2)cc1)C(=O)OCC` (stereo not drawn), the TGI with UACC-62 melanoma is above 100 µM; with HS 578T breast, above 100 µM; in the experiment on UO-31 renal it was above 100 µM; in the experiment on SF-268 CNS, above 100 µM; in the experiment on HCT-116 colon, above 100 µM; with M14 melanoma, 96.8 µM. The TGI in the experiment on COLO 205 colon was 32.8 µM; in the experiment on SR leukemia it was above 100 µM; in the experiment with OVCAR-5 ovarian it was above 100 µM; in the experiment with DU-145 prostate it was above 100 µM; in the experiment with SF-539 CNS, above 100 µM; with 786-0 renal it was above 100 µM. The TGI in the experiment with MOLT-4 leukemia, in the experiment with UACC-257 melanoma, in the experiment with NCI-H460 lung and in the experiment with MDA-N was above 100 µM in each case.

`CC(C)CNC(=O)c1c(NC(=O)c2ccccc2)sc2[nH]c(=O)n(-c3ccccc3)c(=O)c12`: the TGI in the experiment with UACC-62 melanoma was above 100 µM; in the experiment with HS 578T breast it was above 79.1 µM; in the experiment on UO-31 renal, above 100 µM; with SF-268 CNS, above 100 µM; in the experiment with HCT-116 colon, above 100 µM; in the experiment on M14 melanoma, above 100 µM. In addition, the TGI in the experiment with COLO 205 colon is above 100 µM; with SR leukemia, above 90.7 µM; with OVCAR-5 ovarian, above 100 µM; in the experiment on DU-145 prostate, above 100 µM; in the experiment on SF-539 CNS, above 84 µM; with 786-0 renal, 53.6 µM. Further, the TGI in the experiment on MOLT-4 leukemia, in the experiment with UACC-257 melanoma, in the experiment with NCI-H460 lung and in the experiment with MDA-N was above 100 µM in each case.

Take `CC(=O)OCC1=C2C(OC(=O)C(C)C)CC3(COC(C)=O)OC3/C=C\C3(C)OC3C2OC1=O` (stereo not drawn): the TGI in the experiment with UACC-62 melanoma, in the experiment on HS 578T breast, in the experiment on UO-31 renal, in the experiment with SF-268 CNS, with HCT-116 colon and in the experiment on M14 melanoma was above 100 µM in each case. Also, the TGI with COLO 205 colon, in the experiment on SR leukemia, in the experiment with OVCAR-5 ovarian, in the experiment with DU-145 prostate, in the experiment with SF-539 CNS and in the experiment on 786-0 renal was above 100 µM in each case. Further, the TGI in the experiment with MOLT-4 leukemia, in the experiment on UACC-257 melanoma, in the experiment on NCI-H460 lung and in the experiment with MDA-N was above 100 µM each time.

Take `[O-]/N=N\c1on[n+](CCc2ccccc2)c1Cc1c(/N=N/[O-])on[n+]1CCc1ccccc1`: the TGI is above 100 µM with UACC-62 melanoma; 62.2 µM in the experiment on HS 578T breast; above 100 µM with UO-31 renal; above 100 µM with SF-268 CNS; above 100 µM in the experiment with HCT-116 colon; above 100 µM in the experiment with M14 melanoma. The TGI with COLO 205 colon is above 100 µM; in the experiment on SR leukemia it was above 100 µM; in the experiment on OVCAR-5 ovarian, above 100 µM; with DU-145 prostate, above 100 µM; in the experiment on SF-539 CNS, 37.1 µM; in the experiment with 786-0 renal it was 47.5 µM. For the same molecule, the TGI with MOLT-4 leukemia, with UACC-257 melanoma, in the experiment on NCI-H460 lung and with MDA-N was above 100 µM throughout.

Consider `CC12OC3(C(O)C1O)C(C(=O)O[C@H]3CO[Si](C)(C)C(C)(C)C)C2S(=O)(=O)c1ccccc1` (stereo partly drawn), for which the TGI with UACC-62 melanoma is 36 µM; in the experiment on HS 578T breast it was above 100 µM; with UO-31 renal it was above 100 µM; with SF-268 CNS it was above 100 µM; in the experiment on HCT-116 colon, above 100 µM; in the experiment on M14 melanoma it was above 100 µM. Besides, the TGI with SR leukemia was 87.5 µM; in the experiment on OVCAR-5 ovarian, above 100 µM; in the experiment with DU-145 prostate, above 100 µM; in the experiment with SF-539 CNS, above 100 µM; with 786-0 renal, above 100 µM; with MOLT-4 leukemia, 55.7 µM. Further, the TGI was 69 µM in the experiment on UACC-257 melanoma, above 100 µM in the experiment with NCI-H460 lung and above 100 µM in the experiment on MDA-N.

For `C=CCC1(O)C(=O)OC2C(O)COC21O` (stereo not drawn), the TGI in the experiment with UACC-62 melanoma, with HS 578T breast, in the experiment on UO-31 renal, in the experiment with SF-268 CNS, in the experiment on HCT-116 colon and in the experiment on M14 melanoma was above 100 µM in each case. Besides, the TGI with COLO 205 colon, in the experiment on SR leukemia, in the experiment with OVCAR-5 ovarian, in the experiment with DU-145 prostate, in the experiment with SF-539 CNS and in the experiment with 786-0 renal was above 100 µM in each case. The TGI with MOLT-4 leukemia, in the experiment on UACC-257 melanoma, in the experiment on NCI-H460 lung and with MDA-N was above 100 µM in each case.

As to `NC(CCC(=O)NC(CSC(=O)N(O)c1ccc(Cl)cc1)C(=O)NCC(=O)O)C(=O)O` (stereo not drawn), the TGI in the experiment with UACC-62 melanoma, with HS 578T breast, with UO-31 renal, with SF-268 CNS, in the experiment on HCT-116 colon and with M14 melanoma was above 0.5 µM each time. Besides, the TGI in the experiment on COLO 205 colon, in the experiment with SR leukemia, with OVCAR-5 ovarian, in the experiment with DU-145 prostate, with SF-539 CNS and in the experiment with 786-0 renal was above 0.5 µM throughout. In addition, the TGI with MOLT-4 leukemia, with UACC-257 melanoma, in the experiment with NCI-H460 lung and in the experiment with MDA-N was above 0.5 µM throughout.

On to `S=C1NCCN1C(=S)NC1CCCCC1`, for which the TGI with UACC-62 melanoma was 96.5 µM; with HS 578T breast it was 99.2 µM; with UO-31 renal, 81.6 µM; in the experiment on SF-268 CNS, above 100 µM; in the experiment on HCT-116 colon, above 100 µM; in the experiment on M14 melanoma, 51.2 µM. The TGI is 59.2 µM in the experiment on COLO 205 colon; above 100 µM in the experiment with SR leukemia; above 100 µM in the experiment with OVCAR-5 ovarian; above 100 µM with DU-145 prostate; 70.7 µM in the experiment on SF-539 CNS; above 100 µM with 786-0 renal. In addition, the TGI in the experiment with MOLT-4 leukemia is above 100 µM; with UACC-257 melanoma it was 63.3 µM; with NCI-H460 lung, 48 µM; in the experiment on MDA-N, above 100 µM.
